Results reported in US8163793B2, “Proline derivatives” (Hoffman-La Roche Inc., priority 2009, dated 2012).
Where a name gives a salt, the structure may show the parent alone.

Key:
Cathepsin S = Cathepsin S (UniProt P25774); assay: Cathepsin enzyme inhibition assay (fluorogenic peptide substrate Z-Val-Val-Arg-AMC), Cathepsin S; type: biochemical, human and mouse; conditions: enzyme 1 nM, substrate 20 μM, pH 6.5; read-out: CatS IC50
Protocol: (§1) Cathepsin Enzyme Inhibition Assay
(§2) Enzyme activity is measured by observing the increase in fluorescence intensity caused by cleavage of a peptide substrate containing a fluorophore whose emission is quenched in the intact peptide.
(§3) Assay buffer: 100 mM potassium phosphate pH 6.5, EDTA-Na 5 mM, Triton X-100 0.001%, DDT 5 mM.
(§4) Enzymes (all at 1 nM): human and mouse Cathepsin S, Cat K, Cat B, Cat L Substrate (20 μM): Z-Val-Val-Arg-AMC, except for Cat K which uses Z-Leu-Arg-AMC (both from Bachem).
(§5) AMC=7-Amino-4-Methyl-Coumarin.
Enzyme is added to the substance dilutions in 96-well microtitre plates and the reaction is started with substrate. […] IC50 are calculated by standard methods. The results are expressed in μM in the following table.

Cat L = Cat L (UniProt P07711); assay: Cathepsin enzyme inhibition assay (fluorogenic peptide substrate Z-Val-Val-Arg-AMC), Cathepsin L; type: biochemical, human and mouse; conditions: for IC50: enzyme 1 nM, substrate 20 μM, pH 6.5, read-out: CatL IC50
Protocol: as §1, §2, §3, §4, §5
Excitation 360 nm, Emission 465 nm.
Enzyme is added to the substance dilutions in 96-well microtitre plates and the reaction is started with substrate. Fluorescence emission is measured over 20 minutes, during which time a linear increase is observed in the absence of inhibitor. IC50 are calculated by standard methods. The results are expressed in μM in the following table.

Row | IC50 (Cathepsin S) [nM] | IC50 (Cat L) [nM] | CatL, % @25 uM (Cat L; @25 uM compound) [% @25 uM] | Compound
1 | 6.7 | ≥ 25000 |  | CC(=O)N1C[C@H](S(=O)(=O)c2ccccc2C(F)(F)F)C[C@H]1C(=O)NC1(C#N)CC1 [Example 101, (2S,4R)-1-Acetyl-4-(2-trifluoromethyl-benzenesulfonyl)-pyrrolidine-2-carboxylic acid (1-cyano-cyclopropyl)-amide]
2 | 0.2 | 285 |  | N#CC1(NC(=O)[C@@H]2C[C@@H](S(=O)(=O)c3ccccc3Cl)CN2C(=O)C2(c3ccccc3)CC2)CC1 [Example 216, (2S,4R)-4-(2-Chloro-benzenesulfonyl)-1-(1-phenyl-cyclopropanecarbonyl)-pyrrolidine-2-carboxylic acid (1-cyano-cyclopropyl)-amide]
3 | 0.415 | 335 |  | N#CC1(NC(=O)[C@@H]2C[C@@H](S(=O)(=O)c3ccccc3Cl)CN2C(=O)C2(c3cccc(Cl)c3)CC2)CC1 [Example 428, (2S,4R)-1-(1-(3-chlorophenyl)cyclopropanecarbonyl)-4-(2-chlorophenylsulfonyl)-N-(1-cyanocyclopropyl)pyrrolidine-2-carboxamide]
4 | 3.4 | 28600 |  | CCN1CCN(c2ccc(S(=O)(=O)[C@@H]3C[C@@H](C(=O)NC4(C#N)CC4)N(C(=O)OC(C)(C)C)C3)c(Cl)c2)CC1 [Example 138, (2S,4R)-4-[2-Chloro-4-(4-ethyl-piperazin-1-yl)-benzenesulfonyl]-2-(1-cyano-cyclopropylcarbamoyl)-pyrrolidine-1-carboxylic acid tert.-butyl ester]
5 | 1.1 | 1380 |  | Cc1cc(N2C[C@H](S(=O)(=O)c3ccccc3Cl)C[C@H]2C(=O)NC2(C#N)CC2)n(-c2ccc(C(F)(F)F)cc2)n1 [Example 253, (2S,4R)-4-(2-Chloro-benzenesulfonyl)-1-[5-methyl-2-(4-trifluoromethyl-phenyl)-2H-pyrazol-3-yl]-pyrrolidine-2-carboxylic acid (1-cyano-cyclopropyl)-amide]
6 | 0.2 | 1000 |  | N#CC1(NC(=O)[C@@H]2C[C@@H](S(=O)(=O)c3ccc(Cl)cc3Cl)CN2C(=O)C2(c3ccccc3)CC2)CC1 [Example 224, (2S,4R)-4-(2,4-Dichloro-benzenesulfonyl)-1-(1-phenyl-cyclopropanecarbonyl)-pyrrolidine-2-carboxylic acid (1-cyano-cyclopropyl)-amide]
7 | 1.6 | ≥ 25000 |  | CCC(=O)N1C[C@H](S(=O)(=O)c2ccccc2C(F)(F)F)C[C@H]1C(=O)NC1(C#N)CC1 [Example 103, (2S,4R)-1-Propionyl-4-(2-trifluoromethyl-benzenesulfonyl)-pyrrolidine-2-carboxylic acid (1-cyano-cyclopropyl)-amide]
8 | 0.07 | 21.7 |  | CC(C)N1CCN(c2ccc(S(=O)(=O)[C@@H]3C[C@@H](C(=O)NC4(C#N)CC4)N(C(=O)C4(c5ccc(Cl)nc5)CC4)C3)c(Cl)c2)CC1 [Example 370, (2S,4R)-4-[2-Chloro-4-(4-isopropyl-piperazin-1-yl)-benzenesulfonyl]-1-[1-(6-chloro-pyridin-3-yl)-cyclopropanecarbonyl]-pyrrolidine-2-carboxylic acid (1-cyano-cyclopropyl)-amide; Compound with Formic Acid]
9 | 840 |  | 97 | Cc1cc(N2C[C@H](S(=O)(=O)CC3CC3)C[C@H]2C(=O)NC2(C#N)CC2)n(-c2ccc(C(F)(F)F)cc2)n1 [Example 469, (2S,4R)-4-Cyclopropylmethanesulfonyl-1-[5-methyl-2-(4-trifluoromethyl-phenyl)-2H-pyrazol-3-yl]-pyrrolidine-2-carboxylic acid (1-cyano-cyclopropyl)-amide]
10 | 0.03 | 220 |  | N#CC1(NC(=O)[C@@H]2C[C@@H](S(=O)(=O)c3ccc(-n4cnc5cnccc54)cc3Cl)CN2C(=O)C2(c3ccc(Cl)cc3)CC2)CC1 [Example 349, (2S,4R)-4-(2-Chloro-4-imidazo[4,5-c]pyridin-1-yl-benzenesulfonyl)-1-[1-(4-chloro-phenyl)-cyclopropanecarbonyl]-pyrrolidine-2-carboxylic acid (1-cyano-cyclopropyl)-amide]
11 | 0.08 | 49.5 |  | COCCOc1ccc(S(=O)(=O)[C@@H]2C[C@@H](C(=O)NC3(C#N)CC3)N(C(=O)C3(c4ccc(Cl)cc4)CC3)C2)c(Cl)c1 [Example 342, (2S,4R)-4-[2-Chloro-4-(2-methoxy-ethoxy)-benzenesulfonyl]-1-[1-(4-chloro-phenyl)-cyclopropanecarbonyl]-pyrrolidine-2-carboxylic acid (1-cyano-cyclopropyl)-amide]
12 | 2.2 | 30800 |  | CC(C)(C)OC(=O)N1C[C@H](S(=O)(=O)c2ccc(N3CCC(F)(F)CC3)cc2Cl)C[C@H]1C(=O)NC1(C#N)CC1 [Example 152, (2S,4R)-4-[2-Chloro-4-(4,4-difluoro-piperidin-1-yl)-benzenesulfonyl]-2-(1-cyano-cyclopropylcarbamoyl)-pyrrolidine-1-carboxylic acid tert.-butyl ester]
13 | 0.168 | ≥ 25000 |  | N#CC1(NC(=O)[C@@H]2C[C@@H](S(=O)(=O)c3ccc(OCC(F)(F)F)cc3C(F)(F)F)CN2C(=O)C2(C(F)(F)F)CC2)CC1 [Example 237, (2S,4R)-4-[4-(2,2,2-Trifluoro-ethoxy)-2-trifluoromethyl-benzenesulfonyl]-1-(1-trifluoromethyl-cyclopropanecarbonyl)-pyrrolidine-2-carboxylic acid (1-cyano-cyclopropyl)-amide]

More lines, now with the values behind:

Row | Compound | IC50 (Cathepsin S) [nM] | IC50 (Cat L) [nM] | CatL, % @25 uM (Cat L; @25 uM compound) [% @25 uM]
14 | Cc1cc(N2C[C@H](S(=O)(=O)c3ccc(OCC(F)(F)F)cc3C(F)(F)F)C[C@@H]2C(=O)NC2(C#N)CC2)n(C2CCC2)n1 [Example 392, (2R,4R)-1-(2-Cyclobutyl-5-methyl-2H-pyrazol-3-yl)-4-[4-(2,2,2-trifluoro-ethoxy)-2-trifluoromethyl-benzenesulfonyl]-pyrrolidine-2-carboxylic acid (1-cyano-cyclopropyl)-amide] | 0.91 | ≥ 25000 | 
15 | N#CC1(NC(=O)[C@@H]2C[C@H](S(=O)(=O)c3ccccc3C(F)(F)F)CN2)CC1 [Example 159, (2S,4S)-4-(2-Trifluoromethyl-benzenesulfonyl)-pyrrolidine-2-carboxylic acid (1-cyano-cyclopropyl)-amide] | 2610 | ≥ 25000 | 
16 | N#CC1(NC(=O)[C@@H]2C[C@@H](S(=O)(=O)c3ccccc3C(F)(F)F)CN2C(=O)CC(F)(F)F)CC1 [Example 206, (2S,4R)-4-(2-Trifluoromethyl-benzenesulfonyl)-1-(3,3,3-trifluoro-propionyl)-pyrrolidine-2-carboxylic acid (1-cyano-cyclopropyl)-amide] | 0.2 | ≥ 25000 | 
17 | N#CCNC(=O)C12CC(F)(F)CN1CCC2S(=O)(=O)c1ccccc1 (centres unmarked) [Example 117, 1-Benzenesulfonyl-6,6-difluoro-tetrahydro-pyrrolizine-7a-carboxylic acid cyanomethyl-amide, diasteromer Δ2] | 86.5 | ≥ 25000 | 
18 | N#CC1(NC(=O)[C@@H]2C[C@@H](S(=O)(=O)c3ccc(-n4ccccc4=O)cc3C(F)(F)F)CN2)CC1 [Example 31, (2S,4R)-4-[4-(2-Oxo-2H-pyridin-1-yl)-2-trifluoromethyl-benzenesulfonyl]-pyrrolidine-2-carboxylic acid (1-cyano-cyclopropyl)-amide hydrochloride] | 2 | ≥ 25000 | 
19 | N#CC1(NC(=O)[C@@H]2C[C@@H](S(=O)(=O)c3ccc(N4CCOC4=O)cc3C(F)(F)F)CN2)CC1 [Example 27, (2S,4R)-4-[4-(2-oxo-oxazolidin-3-yl)-2-trifluoromethyl-benzenesulfonyl]-pyrrolidine-2-carboxylic acid (1-cyano-cyclopropyl)-amide hydrochloride] | 2.2 | ≥ 25000 | 
20 | N#CC1(NC(=O)C2CC(S(=O)(=O)c3ccccc3C(F)(F)F)CN2c2cccc(OC(F)(F)F)c2)CC1 (centres unmarked) [Example 367, 1-(3-Trifluoromethoxy-phenyl)-4-(2-trifluoromethyl-benzenesulfonyl)-pyrrolidine-2-carboxylic acid (1-cyano-cyclopropyl)-amide] | 1.57 | ≥ 25000 | 
21 | N#CC1(NC(=O)C2CC(S(=O)(=O)c3ccccc3C(F)(F)F)CN2C2CCOCC2)CC1 (centres unmarked) [Example 362, 1-(Tetrahydro-pyran-4-yl)-4-(2-trifluoromethyl-benzenesulfonyl)-pyrrolidine-2-carboxylic acid (1-cyano-cyclopropyl)-amide] | 380 | ≥ 25000 | 
22 | N#CC1(NC(=O)[C@H]2C[C@@H](S(=O)(=O)c3ccccc3C(F)(F)F)CN2c2ncccc2C(F)(F)F)CC1 [Example 187, (2R,4R)-4-(2-Trifluoromethyl-benzenesulfonyl)-1-(3-trifluoromethyl-pyridin-2-yl)-pyrrolidine-2-carboxylic acid (1-cyano-cyclopropyl)-amide] |  | ≥ 25000 | 
23 | N#CC1(NC(=O)[C@@H]2C[C@@H](S(=O)(=O)c3ccccc3C(F)(F)F)CN2c2ccccc2)CC1 [Example 119, (2S,4R)-1-Phenyl-4-(2-trifluoromethyl-benzenesulfonyl)-pyrrolidine-2-carboxylic acid (1-cyano-cyclopropyl)-amide] |  | ≥ 25000 | 
